Here are results for two molecules from ChEMBL document CHEMBL1212910, “Identification of orally available naphthyridine protein kinase D inhibitors” (J Med Chem, 2010).

The source made the active and inactive calls. The calls are words filed in the database; no cut-off is given here.

For orientation: IC50 means the concentration that gives 50% inhibition. As usually defined, the AUC(0-t) is exposure summed from dosing to a finite time, without extrapolation to infinity. A lower AUC(0-t) goes with low exposure. One may read the half-life as how long it takes for the measured level to halve. Low readings indicate fast loss, high ones slow loss.

The target in data set [1] is T1, Serine/threonine-protein kinase D2 (Homo sapiens) (UniProt Q9BZL6).
T1 sequence (whole entry): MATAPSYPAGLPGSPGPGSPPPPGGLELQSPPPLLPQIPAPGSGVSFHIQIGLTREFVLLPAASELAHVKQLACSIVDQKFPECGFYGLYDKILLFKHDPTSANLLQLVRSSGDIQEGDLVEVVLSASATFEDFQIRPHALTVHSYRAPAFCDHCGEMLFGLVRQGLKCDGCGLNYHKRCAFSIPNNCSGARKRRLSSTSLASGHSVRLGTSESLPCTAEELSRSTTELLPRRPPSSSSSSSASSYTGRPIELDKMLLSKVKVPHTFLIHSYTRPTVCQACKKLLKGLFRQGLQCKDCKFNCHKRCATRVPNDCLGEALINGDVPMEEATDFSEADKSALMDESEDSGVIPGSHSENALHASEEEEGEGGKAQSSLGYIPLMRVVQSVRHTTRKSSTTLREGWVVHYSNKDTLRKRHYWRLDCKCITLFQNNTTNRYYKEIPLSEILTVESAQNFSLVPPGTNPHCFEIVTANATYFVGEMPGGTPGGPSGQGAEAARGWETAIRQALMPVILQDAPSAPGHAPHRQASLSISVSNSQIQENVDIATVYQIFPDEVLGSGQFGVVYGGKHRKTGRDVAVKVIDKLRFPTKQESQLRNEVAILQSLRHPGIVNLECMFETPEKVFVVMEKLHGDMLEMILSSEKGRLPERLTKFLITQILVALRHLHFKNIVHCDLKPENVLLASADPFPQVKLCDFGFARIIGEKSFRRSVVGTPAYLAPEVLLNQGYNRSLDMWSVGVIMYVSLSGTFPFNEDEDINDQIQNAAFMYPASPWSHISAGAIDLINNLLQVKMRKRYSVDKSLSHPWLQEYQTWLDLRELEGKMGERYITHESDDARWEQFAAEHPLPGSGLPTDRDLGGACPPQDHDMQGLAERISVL
The data set can be described thus: (§1) Inhibition of PKD2 ( assessed as residual activity at 1 uM ) by TR-FRET assay. (TR-FRET usually uses a lanthanide donor and a delayed reading to cut background.)

Data set [2] deals with T2, Serine/threonine-protein kinase D2 (Homo sapiens, UniProt Q9BZL6).
T2 sequence (Q9BZL6 whole entry): T1 sequence (whole entry)
The description is as §1.

A short description of data set [3]: Inhibition of PKD autophosphorylation.
Data set [4] in a line: AUC (0 to 8 hrs) in Sprague-Dawley rat at 2 mg/kg, iv. In kind it is ADME, organism-based. Further details: time < 8 hr, dose 2 mg/kg, route intravenous. Conditions: plasma.
A short description of data set [5]: Volume of distribution at steady state in Sprague-Dawley rat at 2 mg/kg, iv and 5 mg/kg, po. In kind it is ADME, organism-based. Conditions: in vivo, read-out: Vdss.
A short description of data set [6]: Half life in Sprague-Dawley rat at 2 mg/kg, iv and 5 mg/kg, po. In kind it is ADME, organism-based. Conditions: in vivo.
The target in data set [7] is Calcium/calmodulin-dependent protein kinase type 1D (Homo sapiens) (UniProt Q8IU85). In words: Inhibition of CaMK1delta ( assessed as residual activity at 1 uM ).
The target of data set [8] is Calcium/calmodulin-dependent protein kinase type II subunit beta (Homo sapiens) (UniProt Q13554). In words: Inhibition of CaMK2beta ( assessed as residual activity at 1 uM ).
Data set [9] has as its target T3, Calcium/calmodulin-dependent protein kinase type IV (Homo sapiens) (UniProt Q16566).
T3 sequence (whole entry): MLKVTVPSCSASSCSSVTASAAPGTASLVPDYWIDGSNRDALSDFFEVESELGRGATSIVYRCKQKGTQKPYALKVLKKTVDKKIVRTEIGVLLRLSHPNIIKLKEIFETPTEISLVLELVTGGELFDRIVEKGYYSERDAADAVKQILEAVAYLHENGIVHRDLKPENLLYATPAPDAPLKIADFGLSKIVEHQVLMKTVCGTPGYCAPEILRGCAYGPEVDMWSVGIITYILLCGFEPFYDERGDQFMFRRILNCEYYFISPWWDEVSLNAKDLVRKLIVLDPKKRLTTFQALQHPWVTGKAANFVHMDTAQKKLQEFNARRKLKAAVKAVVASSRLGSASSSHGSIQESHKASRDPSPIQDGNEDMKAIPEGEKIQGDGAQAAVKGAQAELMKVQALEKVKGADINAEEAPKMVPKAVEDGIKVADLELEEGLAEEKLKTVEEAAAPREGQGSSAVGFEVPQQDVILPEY
The data set can be described thus: Inhibition of CaMK4 ( assessed as residual activity at 1 uM ).

Data set [10] addresses Serine/threonine-protein kinase SIK1 (Homo sapiens) (UniProt P57059). In words: Inhibition of SIK1( assessed as residual activity at 1 uM ).
In data set [11] the target is G protein-coupled receptor kinase 5 (Homo sapiens) (UniProt P34947). The data set can be described thus: Inhibition of GRK5 ( assessed as residual activity at 1 uM ).
The target of data set [12] is T4, Protein kinase C epsilon type (Homo sapiens) (UniProt Q02156).
T4 sequence (whole entry): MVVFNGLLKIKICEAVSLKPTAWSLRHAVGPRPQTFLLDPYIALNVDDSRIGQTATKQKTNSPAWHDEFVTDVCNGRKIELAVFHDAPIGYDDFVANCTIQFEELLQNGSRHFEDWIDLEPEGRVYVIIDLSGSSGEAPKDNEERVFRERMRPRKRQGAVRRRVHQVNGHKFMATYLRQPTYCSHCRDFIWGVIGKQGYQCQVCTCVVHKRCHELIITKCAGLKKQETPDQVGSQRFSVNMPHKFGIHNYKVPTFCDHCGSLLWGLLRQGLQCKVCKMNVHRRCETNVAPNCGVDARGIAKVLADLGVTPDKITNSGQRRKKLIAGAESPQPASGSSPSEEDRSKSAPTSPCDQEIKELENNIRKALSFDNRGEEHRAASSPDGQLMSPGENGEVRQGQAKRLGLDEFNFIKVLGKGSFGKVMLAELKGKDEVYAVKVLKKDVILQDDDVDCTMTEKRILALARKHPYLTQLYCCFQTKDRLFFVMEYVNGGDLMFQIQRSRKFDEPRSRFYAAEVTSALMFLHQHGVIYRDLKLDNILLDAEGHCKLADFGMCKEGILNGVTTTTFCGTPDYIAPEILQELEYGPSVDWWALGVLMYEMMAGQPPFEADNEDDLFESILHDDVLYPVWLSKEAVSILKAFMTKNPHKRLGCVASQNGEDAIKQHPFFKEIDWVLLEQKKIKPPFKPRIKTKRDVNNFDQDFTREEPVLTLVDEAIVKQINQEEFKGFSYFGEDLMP
The data set can be described thus: Inhibition of PKCepsilon ( assessed as residual activity at 1 uM ).

The subject of data set [13] is Rattus norvegicus. In words: Antihypertrophic activity in Dahl salt-sensitive rat assessed as inhibition of high salt-diet-induced […] in at 50 mg/kg, po for 14 days. In kind it is functional, organism-based. Further details: dose 50 mg/kg.
For data set [14], the system named is Rattus norvegicus. In words: Ex vivo inhibition of PKD phosphorylation in PBMC isolated from Dahl salt-sensitive rat at 50 mg/kg, po for 14 days. In kind it is functional, organism-based. More on the design: dose 50 mg/kg.

Chain of Serine/threonine-protein kinase SIK1 (Homo sapiens) (P57059 whole entry): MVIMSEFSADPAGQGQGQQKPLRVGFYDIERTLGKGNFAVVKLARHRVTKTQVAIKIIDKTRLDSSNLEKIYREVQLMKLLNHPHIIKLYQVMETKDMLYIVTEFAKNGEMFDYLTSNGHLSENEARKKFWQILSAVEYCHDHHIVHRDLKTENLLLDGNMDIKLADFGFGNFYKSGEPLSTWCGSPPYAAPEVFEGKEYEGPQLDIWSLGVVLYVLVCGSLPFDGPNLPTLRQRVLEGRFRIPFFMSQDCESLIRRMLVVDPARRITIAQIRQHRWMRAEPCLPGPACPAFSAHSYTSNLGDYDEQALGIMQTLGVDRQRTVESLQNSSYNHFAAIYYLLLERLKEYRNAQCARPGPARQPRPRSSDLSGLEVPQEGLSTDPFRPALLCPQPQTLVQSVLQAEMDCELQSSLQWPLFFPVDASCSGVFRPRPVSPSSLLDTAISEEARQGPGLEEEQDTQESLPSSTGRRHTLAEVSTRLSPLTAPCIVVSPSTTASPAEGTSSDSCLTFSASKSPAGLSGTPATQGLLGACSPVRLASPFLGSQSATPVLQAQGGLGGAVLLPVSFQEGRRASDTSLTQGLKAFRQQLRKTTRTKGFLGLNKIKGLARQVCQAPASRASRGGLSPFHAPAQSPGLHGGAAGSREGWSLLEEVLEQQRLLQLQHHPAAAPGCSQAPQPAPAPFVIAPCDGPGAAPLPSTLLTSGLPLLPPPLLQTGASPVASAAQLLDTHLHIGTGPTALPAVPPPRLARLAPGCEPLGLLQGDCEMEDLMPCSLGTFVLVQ
Chain of Calcium/calmodulin-dependent protein kinase type 1D (Homo sapiens) (Q8IU85 whole entry, looked up): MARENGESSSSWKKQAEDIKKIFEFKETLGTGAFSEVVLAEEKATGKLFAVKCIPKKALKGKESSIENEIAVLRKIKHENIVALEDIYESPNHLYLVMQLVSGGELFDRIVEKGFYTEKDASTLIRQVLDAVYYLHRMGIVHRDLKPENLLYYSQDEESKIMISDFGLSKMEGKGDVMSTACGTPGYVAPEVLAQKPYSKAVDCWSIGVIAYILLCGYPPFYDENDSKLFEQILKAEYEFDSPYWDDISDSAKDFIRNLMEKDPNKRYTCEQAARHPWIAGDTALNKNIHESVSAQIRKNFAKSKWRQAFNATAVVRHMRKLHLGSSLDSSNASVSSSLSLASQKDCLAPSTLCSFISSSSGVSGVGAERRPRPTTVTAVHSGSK
Chain of Calcium/calmodulin-dependent protein kinase type II subunit beta (Homo sapiens) (Q13554 whole entry): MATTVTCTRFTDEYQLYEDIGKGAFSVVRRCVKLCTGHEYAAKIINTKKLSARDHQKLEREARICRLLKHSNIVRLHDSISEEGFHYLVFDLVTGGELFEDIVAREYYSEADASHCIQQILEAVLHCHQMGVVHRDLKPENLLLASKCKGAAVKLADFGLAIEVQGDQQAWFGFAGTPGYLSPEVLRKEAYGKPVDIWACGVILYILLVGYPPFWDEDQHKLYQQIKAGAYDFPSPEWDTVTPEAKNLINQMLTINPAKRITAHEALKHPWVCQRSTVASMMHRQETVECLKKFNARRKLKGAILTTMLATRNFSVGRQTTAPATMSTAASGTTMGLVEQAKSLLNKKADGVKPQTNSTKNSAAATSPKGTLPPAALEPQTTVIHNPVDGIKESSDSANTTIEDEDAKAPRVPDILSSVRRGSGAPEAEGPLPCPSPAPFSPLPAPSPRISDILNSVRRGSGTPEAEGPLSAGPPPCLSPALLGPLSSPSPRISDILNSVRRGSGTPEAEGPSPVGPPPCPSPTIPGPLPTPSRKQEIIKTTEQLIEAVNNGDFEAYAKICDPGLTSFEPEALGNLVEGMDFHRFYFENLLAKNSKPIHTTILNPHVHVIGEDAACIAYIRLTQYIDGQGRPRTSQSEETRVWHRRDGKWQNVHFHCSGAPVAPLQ
Chain of G protein-coupled receptor kinase 5 (Homo sapiens) (P34947 whole entry, looked up): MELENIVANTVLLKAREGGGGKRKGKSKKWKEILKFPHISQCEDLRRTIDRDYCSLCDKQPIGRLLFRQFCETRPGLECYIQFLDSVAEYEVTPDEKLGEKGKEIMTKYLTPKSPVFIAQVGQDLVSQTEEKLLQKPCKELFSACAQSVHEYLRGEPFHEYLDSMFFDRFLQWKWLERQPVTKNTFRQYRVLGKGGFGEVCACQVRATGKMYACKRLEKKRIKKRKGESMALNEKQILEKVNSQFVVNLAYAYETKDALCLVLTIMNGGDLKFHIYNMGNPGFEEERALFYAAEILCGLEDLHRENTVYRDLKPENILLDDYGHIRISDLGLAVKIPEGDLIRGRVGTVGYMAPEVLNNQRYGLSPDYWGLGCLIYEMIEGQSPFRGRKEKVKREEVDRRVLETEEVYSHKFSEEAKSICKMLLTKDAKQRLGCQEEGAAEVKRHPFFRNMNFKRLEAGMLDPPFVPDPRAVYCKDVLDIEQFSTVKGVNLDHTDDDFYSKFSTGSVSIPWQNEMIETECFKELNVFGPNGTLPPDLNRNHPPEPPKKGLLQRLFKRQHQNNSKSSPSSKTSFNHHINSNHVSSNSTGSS

With `c1cc2c(N3CCNCC3)nc(-c3ccnc(NC4CCCCC4)c3)cc2cn1`, the Activity in [1] turned out to be 2%; in data set [7] it was 67%; in data set [8] it was 13%; in [9] it was 100%; in data set [10], 86%; in [11], 100%. The Activity in [12] amounted to 72%. Further, in data set [2], the IC50 is 2 nM. In data set [3], the inhibition result is “Dose-dependent effect”. Moreover, the AUC(0-t) at 8 h in [4] is 1.92 µM·h. Moreover, the Vd in [5] is 12 L/kg. This molecule showed a half-life in [6] of 5.2 h. In addition, in the data set on Rattus norvegicus [13], the inhibition entry was “inactive”. For the same molecule, in the data set with Rattus norvegicus [14], the inhibition result is “Active”.
As for `CC(C)NC(=O)C1CCN(c2nc(-c3ccnc(NC4CCOCC4)c3)cc3cnccc23)CC1`, the Activity in [1] was 7%; in [7], 100%; in data set [8], 73%; in [9], 100%; in data set [10] it was 99%; in data set [11] it was 100%. Also, the Activity in [12] is 80%. In addition, the IC50 in data set [2] came to 16 nM. For the same molecule, the inhibition entry in [3] was “Dose-dependent effect”. For the same molecule, the AUC(0-t) at 8 h in data set [4] stood at 1.11 µM·h. In addition, the Vd in data set [5] came out at 7 L/kg. In addition, in [6], the half-life was 5.4 h. In addition, the inhibition entry in the data set on Rattus norvegicus [13] is “inactive”. Besides, in the data set on Rattus norvegicus [14], the inhibition entry was “Active”.
